Structures can show the parent of a compound that is named as a salt. Calls of active or inactive are those of the source. Rule as the data show it, for most assays here: actives have a measured Kd and inactives only a lower limit.
Legend:
[1] = target: Tyrosine-protein kinase FRK (Homo sapiens, UniProt P42685)
[2] = target: Epithelial discoidin domain-containing receptor 1 (Homo sapiens, UniProt Q08345)
[3] = target: T1, Dual specificity mitogen-activated protein kinase kinase 5 (Homo sapiens, UniProt Q13163)
T1 sequence (Q13163 whole entry): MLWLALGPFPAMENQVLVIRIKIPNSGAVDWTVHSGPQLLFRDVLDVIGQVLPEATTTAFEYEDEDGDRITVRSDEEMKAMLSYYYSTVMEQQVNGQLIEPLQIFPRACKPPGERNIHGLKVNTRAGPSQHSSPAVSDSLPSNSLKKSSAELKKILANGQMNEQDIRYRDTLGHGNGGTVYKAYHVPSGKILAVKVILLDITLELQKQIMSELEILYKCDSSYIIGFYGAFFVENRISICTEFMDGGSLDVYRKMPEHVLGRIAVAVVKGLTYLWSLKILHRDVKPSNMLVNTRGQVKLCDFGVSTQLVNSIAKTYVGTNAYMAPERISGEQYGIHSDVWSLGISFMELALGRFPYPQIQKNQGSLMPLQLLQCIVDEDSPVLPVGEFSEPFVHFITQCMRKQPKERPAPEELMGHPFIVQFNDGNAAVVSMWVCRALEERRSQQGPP

[4] = target: Tyrosine-protein kinase BTK (Homo sapiens, UniProt Q06187)
[5] = target: T2, Membrane-associated tyrosine- and threonine-specific cdc2-inhibitory kinase (Homo sapiens, UniProt Q99640)
T2 sequence (Q99640 whole entry): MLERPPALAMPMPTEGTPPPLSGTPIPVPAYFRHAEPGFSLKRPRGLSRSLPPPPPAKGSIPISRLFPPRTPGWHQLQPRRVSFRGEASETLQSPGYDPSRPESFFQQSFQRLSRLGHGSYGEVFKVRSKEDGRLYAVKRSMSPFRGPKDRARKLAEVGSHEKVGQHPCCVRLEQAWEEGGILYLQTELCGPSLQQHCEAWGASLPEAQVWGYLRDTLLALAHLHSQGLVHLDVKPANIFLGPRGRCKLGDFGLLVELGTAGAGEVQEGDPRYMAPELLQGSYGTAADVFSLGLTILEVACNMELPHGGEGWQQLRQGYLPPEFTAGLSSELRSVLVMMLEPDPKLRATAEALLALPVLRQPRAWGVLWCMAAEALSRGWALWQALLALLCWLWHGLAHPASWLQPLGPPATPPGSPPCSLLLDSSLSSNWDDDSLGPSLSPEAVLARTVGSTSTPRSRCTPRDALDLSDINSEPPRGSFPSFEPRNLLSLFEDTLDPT

[6] = target: 26S proteasome regulatory subunit 6B (Homo sapiens, UniProt P43686)
Sequence of 26S proteasome regulatory subunit 6B (P43686 whole entry, canonical isoform): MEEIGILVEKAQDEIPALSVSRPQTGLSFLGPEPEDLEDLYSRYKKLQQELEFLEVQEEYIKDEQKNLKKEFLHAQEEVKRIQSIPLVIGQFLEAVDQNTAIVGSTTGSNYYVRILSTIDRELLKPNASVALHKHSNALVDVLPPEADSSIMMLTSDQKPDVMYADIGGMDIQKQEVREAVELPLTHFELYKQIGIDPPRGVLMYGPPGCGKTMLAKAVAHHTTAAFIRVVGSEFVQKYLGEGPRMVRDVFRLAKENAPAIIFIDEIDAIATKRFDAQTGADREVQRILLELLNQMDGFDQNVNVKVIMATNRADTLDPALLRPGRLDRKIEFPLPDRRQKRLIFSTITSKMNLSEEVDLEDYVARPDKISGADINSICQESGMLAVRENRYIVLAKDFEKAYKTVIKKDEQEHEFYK

[7] = target: Casein kinase I isoform alpha (Homo sapiens, UniProt P48729)
Sequence of Casein kinase I isoform alpha (P48729 whole entry, canonical isoform): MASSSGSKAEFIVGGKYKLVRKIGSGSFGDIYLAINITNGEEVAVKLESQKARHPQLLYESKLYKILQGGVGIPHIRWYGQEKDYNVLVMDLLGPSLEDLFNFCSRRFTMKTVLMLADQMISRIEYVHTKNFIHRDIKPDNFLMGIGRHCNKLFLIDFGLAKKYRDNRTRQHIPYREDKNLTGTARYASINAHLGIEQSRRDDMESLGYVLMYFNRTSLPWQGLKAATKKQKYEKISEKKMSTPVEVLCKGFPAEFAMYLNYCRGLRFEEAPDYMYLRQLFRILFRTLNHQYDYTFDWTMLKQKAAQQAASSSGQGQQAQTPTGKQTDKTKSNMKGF

[8] = target: Non-receptor tyrosine-protein kinase TYK2 (Homo sapiens, UniProt P29597)
Sequence of Non-receptor tyrosine-protein kinase TYK2 (P29597 whole entry): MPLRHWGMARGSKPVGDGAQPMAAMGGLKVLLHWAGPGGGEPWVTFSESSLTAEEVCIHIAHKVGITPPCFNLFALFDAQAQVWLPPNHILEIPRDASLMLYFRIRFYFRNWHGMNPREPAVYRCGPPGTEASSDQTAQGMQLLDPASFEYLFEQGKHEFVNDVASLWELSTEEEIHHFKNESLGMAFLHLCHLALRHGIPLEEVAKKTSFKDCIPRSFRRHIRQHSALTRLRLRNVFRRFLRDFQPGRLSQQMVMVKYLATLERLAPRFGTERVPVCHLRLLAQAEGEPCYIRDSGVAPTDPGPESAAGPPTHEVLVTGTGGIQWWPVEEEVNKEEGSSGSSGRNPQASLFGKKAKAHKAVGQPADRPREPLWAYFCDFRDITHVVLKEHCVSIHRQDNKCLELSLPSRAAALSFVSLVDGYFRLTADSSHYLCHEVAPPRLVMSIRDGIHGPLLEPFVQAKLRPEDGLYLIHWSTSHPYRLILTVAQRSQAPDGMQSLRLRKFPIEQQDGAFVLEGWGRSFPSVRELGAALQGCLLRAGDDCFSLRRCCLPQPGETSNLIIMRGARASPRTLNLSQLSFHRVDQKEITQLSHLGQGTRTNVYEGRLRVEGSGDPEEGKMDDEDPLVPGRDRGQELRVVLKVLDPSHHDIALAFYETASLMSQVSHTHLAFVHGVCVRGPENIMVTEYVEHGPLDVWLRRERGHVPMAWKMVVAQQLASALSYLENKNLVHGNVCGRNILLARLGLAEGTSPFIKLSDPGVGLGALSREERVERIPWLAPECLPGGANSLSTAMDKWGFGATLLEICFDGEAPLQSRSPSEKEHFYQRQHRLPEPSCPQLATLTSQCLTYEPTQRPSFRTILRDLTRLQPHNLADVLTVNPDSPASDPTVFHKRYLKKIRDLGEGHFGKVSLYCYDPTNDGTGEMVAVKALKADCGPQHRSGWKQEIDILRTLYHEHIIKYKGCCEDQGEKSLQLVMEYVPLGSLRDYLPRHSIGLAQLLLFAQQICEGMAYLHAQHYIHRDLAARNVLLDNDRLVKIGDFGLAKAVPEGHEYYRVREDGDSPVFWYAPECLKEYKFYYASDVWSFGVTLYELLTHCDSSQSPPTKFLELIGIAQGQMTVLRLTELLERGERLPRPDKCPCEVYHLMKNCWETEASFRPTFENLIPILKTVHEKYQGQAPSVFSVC

[9] = target: T3, Septin-9 (Homo sapiens, UniProt Q9UHD8)
T3 sequence (Q9UHD8 whole entry): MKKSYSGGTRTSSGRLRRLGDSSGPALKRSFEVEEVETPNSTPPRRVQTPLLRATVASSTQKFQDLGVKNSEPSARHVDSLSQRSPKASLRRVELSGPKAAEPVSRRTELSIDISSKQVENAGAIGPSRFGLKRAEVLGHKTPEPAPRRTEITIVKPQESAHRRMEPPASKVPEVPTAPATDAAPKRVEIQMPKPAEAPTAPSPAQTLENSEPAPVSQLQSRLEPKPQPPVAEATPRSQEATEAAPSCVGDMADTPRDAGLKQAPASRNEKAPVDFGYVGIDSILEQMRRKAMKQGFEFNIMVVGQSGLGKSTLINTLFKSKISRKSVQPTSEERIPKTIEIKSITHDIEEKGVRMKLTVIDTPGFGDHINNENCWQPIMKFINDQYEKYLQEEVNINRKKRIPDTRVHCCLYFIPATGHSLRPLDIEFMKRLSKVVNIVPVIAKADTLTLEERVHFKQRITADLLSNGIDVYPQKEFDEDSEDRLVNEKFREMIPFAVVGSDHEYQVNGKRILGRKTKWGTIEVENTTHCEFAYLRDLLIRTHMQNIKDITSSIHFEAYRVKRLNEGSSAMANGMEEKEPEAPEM

[10] = target: T4, Mitogen-activated protein kinase kinase kinase kinase 3 (Homo sapiens, UniProt Q8IVH8)
T4 sequence (Q8IVH8 whole entry): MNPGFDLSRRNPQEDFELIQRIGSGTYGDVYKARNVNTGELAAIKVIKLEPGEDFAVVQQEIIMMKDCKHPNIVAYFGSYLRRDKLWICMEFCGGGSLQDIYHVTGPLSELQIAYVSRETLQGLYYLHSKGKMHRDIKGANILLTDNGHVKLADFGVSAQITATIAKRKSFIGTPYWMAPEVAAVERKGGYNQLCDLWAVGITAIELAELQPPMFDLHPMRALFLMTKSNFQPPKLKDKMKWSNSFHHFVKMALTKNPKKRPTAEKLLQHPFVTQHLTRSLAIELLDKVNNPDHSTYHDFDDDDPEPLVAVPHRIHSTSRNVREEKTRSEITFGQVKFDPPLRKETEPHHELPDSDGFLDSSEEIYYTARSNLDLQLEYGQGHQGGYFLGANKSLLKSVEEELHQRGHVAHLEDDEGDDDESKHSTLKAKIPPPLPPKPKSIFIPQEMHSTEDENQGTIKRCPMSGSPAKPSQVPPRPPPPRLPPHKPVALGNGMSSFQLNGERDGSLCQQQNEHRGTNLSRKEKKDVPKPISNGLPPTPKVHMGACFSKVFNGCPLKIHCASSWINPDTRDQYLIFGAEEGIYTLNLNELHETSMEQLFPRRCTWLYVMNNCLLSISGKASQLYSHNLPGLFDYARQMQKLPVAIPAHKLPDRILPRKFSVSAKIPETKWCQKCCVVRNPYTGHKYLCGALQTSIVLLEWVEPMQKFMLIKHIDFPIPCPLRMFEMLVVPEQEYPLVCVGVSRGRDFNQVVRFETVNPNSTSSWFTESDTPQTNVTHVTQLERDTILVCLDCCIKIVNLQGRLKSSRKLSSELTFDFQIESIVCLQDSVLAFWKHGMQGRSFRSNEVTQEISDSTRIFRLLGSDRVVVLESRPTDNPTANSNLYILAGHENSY

[11] = target: Hepatocyte growth factor receptor (Homo sapiens, UniProt P08581)
Sequence of Hepatocyte growth factor receptor (P08581 whole entry): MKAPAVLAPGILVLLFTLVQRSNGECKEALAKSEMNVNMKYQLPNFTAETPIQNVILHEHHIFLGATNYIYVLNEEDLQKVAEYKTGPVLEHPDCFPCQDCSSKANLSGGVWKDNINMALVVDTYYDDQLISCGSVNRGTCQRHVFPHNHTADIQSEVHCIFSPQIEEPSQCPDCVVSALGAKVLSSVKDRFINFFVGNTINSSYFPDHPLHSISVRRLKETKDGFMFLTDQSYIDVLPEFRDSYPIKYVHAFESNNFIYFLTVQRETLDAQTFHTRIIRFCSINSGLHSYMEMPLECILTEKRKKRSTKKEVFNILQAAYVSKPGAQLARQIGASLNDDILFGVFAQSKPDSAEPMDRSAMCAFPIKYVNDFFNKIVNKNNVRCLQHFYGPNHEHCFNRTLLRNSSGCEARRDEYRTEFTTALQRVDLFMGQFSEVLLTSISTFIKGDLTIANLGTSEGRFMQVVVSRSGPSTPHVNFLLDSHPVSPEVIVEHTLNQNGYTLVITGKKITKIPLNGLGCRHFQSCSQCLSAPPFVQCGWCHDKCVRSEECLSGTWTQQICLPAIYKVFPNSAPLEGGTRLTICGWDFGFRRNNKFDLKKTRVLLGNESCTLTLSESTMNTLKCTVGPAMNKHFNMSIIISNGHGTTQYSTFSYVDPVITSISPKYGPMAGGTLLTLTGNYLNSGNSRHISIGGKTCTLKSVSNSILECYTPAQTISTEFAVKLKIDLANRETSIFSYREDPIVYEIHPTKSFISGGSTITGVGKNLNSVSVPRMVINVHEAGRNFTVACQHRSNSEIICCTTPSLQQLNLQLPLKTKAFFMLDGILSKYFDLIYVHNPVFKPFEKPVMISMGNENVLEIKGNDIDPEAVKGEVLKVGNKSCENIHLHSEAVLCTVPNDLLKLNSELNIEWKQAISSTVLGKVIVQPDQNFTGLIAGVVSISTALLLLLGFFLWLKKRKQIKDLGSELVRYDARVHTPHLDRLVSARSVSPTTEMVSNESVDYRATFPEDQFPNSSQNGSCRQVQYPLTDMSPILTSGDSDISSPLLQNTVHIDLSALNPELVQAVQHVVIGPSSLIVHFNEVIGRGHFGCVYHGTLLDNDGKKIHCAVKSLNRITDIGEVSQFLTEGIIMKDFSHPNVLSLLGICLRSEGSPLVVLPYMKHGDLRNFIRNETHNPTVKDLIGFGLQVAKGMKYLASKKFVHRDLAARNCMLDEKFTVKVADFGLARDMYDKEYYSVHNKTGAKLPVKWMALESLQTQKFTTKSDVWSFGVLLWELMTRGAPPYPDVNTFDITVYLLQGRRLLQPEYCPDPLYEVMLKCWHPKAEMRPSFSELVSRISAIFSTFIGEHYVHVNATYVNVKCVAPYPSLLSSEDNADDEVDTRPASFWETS
Also: in the data inactive means no Kd found up to 30 µM.

Sequence of Epithelial discoidin domain-containing receptor 1 (Q08345 whole entry, the tested form may be a part): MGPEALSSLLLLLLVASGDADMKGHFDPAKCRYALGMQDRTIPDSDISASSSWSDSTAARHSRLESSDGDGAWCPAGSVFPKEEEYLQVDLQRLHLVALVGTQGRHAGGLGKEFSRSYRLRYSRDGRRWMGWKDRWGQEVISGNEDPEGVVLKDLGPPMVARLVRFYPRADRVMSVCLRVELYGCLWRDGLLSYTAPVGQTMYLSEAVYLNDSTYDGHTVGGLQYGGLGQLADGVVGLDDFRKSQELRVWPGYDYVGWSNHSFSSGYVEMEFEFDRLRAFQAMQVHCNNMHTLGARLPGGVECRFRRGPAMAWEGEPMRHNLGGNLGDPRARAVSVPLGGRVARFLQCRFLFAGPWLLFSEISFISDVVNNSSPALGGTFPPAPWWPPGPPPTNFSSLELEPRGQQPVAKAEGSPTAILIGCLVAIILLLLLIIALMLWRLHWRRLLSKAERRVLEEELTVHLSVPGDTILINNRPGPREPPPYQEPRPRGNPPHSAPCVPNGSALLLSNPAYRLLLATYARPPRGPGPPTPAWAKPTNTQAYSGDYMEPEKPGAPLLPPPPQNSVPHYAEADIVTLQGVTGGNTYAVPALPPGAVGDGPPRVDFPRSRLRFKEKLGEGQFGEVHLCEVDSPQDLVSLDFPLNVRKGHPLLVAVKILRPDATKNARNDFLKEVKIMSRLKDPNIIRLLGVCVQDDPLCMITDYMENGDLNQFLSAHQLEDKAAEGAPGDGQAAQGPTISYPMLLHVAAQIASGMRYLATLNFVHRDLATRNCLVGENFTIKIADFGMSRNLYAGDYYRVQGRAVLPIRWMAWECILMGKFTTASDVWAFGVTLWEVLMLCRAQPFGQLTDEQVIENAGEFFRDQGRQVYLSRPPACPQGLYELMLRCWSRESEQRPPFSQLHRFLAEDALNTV
Sequence of Tyrosine-protein kinase FRK (P42685 whole entry, the tested form may be a part): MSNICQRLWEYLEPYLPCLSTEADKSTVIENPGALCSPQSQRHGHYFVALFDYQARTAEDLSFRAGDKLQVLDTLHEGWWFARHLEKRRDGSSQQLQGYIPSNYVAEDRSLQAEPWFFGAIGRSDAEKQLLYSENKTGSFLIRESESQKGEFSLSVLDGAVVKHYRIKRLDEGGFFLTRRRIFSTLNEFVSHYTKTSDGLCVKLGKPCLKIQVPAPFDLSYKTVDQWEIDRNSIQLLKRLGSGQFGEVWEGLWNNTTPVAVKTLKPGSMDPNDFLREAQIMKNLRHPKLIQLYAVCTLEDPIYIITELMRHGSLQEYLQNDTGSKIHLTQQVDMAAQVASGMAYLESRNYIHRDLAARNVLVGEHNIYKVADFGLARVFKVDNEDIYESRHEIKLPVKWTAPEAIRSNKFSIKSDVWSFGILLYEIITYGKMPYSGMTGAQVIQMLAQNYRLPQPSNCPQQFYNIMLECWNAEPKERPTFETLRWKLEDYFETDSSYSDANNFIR

SMILES	Kd [1]	Kd [2]	Kd [3]	Kd [4]	Kd [5]	Kd [6]	Kd [7]	Kd [8]	Kd [9]	Kd [10]	Kd [11]
Cc1nc(NC(=O)N2CCC[C@H]2C(N)=O)sc1-c1ccnc(C(C)(C)C(F)(F)F)c1 [ALPELISIB]	> 30 µM (inactive)	> 30 µM (inactive)	> 30 µM (inactive)	> 30 µM (inactive)	> 30 µM (inactive)	> 30 µM (inactive)	> 30 µM (inactive)	> 30 µM (inactive)	> 30 µM (inactive)	> 30 µM (inactive)	> 30 µM (inactive)
Cc1csc(-c2nnc(Nc3ccc(Oc4ncccc4-c4ccnc(N)n4)cc3)c3ccccc23)c1 [AMG-900]	> 30 µM (inactive)	0.11 µM (active)	> 30 µM (inactive)	> 30 µM (inactive)	> 30 µM (inactive)	> 30 µM (inactive)	> 30 µM (inactive)	> 30 µM (inactive)	> 30 µM (inactive)	> 30 µM (inactive)	> 30 µM (inactive)
C=CC(=O)Nc1cc2c(Nc3ccc(F)c(Cl)c3)ncnc2cc1C#CC(C)(C)N1CCN(C)CC1 [AV-412 FREE BASE]	> 30 µM (inactive)	> 30 µM (inactive)	> 30 µM (inactive)	0.345 µM (active)	> 30 µM (inactive)	> 30 µM (inactive)	> 30 µM (inactive)	> 30 µM (inactive)	> 30 µM (inactive)	> 30 µM (inactive)	> 30 µM (inactive)
COc1cc([C@@H]2c3cc4c(cc3[C@H](O)[C@H]3COC(=O)[C@@H]23)OCO4)cc(OC)c1OC [AXL-1717]	> 30 µM (inactive)	> 30 µM (inactive)	> 30 µM (inactive)	> 30 µM (inactive)	> 30 µM (inactive)	> 30 µM (inactive)	> 30 µM (inactive)	> 30 µM (inactive)	> 30 µM (inactive)	> 30 µM (inactive)	> 30 µM (inactive)
NC(=O)Nc1cc(-c2cccc(F)c2)sc1C(=O)N[C@H]1CCCNC1 [AZD-7762]	1.21 µM (active)	> 30 µM (inactive)	0.147 µM (active)	3.07 µM (active)	> 30 µM (inactive)	> 30 µM (inactive)	> 30 µM (inactive)	> 30 µM (inactive)	> 30 µM (inactive)	0.363 µM (active)	> 30 µM (inactive)
Cn1cnc2c(F)c(Nc3ccc(Br)cc3F)c(C(=O)NOCCO)cc21 [BINIMETINIB]	> 30 µM (inactive)	> 30 µM (inactive)	> 30 µM (inactive)	> 30 µM (inactive)	> 30 µM (inactive)	> 30 µM (inactive)	> 30 µM (inactive)	> 30 µM (inactive)	> 30 µM (inactive)	> 30 µM (inactive)	> 30 µM (inactive)
CCn1c(C(=O)N(C2CC2)C2CC2)cc2c3c(ncn3C)c(Nc3cc(C)n(C)n3)nc21 [BMS-911543]	> 30 µM (inactive)	> 30 µM (inactive)	> 30 µM (inactive)	> 30 µM (inactive)	> 30 µM (inactive)	> 30 µM (inactive)	> 30 µM (inactive)	> 30 µM (inactive)	> 30 µM (inactive)	> 30 µM (inactive)	> 30 µM (inactive)
COc1cc2ncnc(Oc3cccc(NC(=O)Nc4cc(C(C)(C)C(F)(F)F)on4)c3)c2cc1OC [CEP-32496]	0.85 µM	0.124 µM (active)	> 30 µM (inactive)	> 30 µM (inactive)	> 30 µM (inactive)	> 30 µM (inactive)	> 30 µM (inactive)	> 30 µM (inactive)	> 30 µM (inactive)	> 30 µM (inactive)	> 30 µM (inactive)
Cc1cc(Nc2ncc(Cl)c(Nc3ccccc3S(=O)(=O)C(C)C)n2)c(OC(C)C)cc1C1CCNCC1 [CERITINIB]	> 30 µM (inactive)	> 30 µM (inactive)	> 30 µM (inactive)	> 30 µM (inactive)	> 30 µM (inactive)	> 30 µM (inactive)	> 30 µM (inactive)	> 30 µM (inactive)	> 30 µM (inactive)	> 30 µM (inactive)	> 30 µM (inactive)
COc1c(OCCCN2CCOCC2)ccc2c1N=C(NC(=O)c1cnc(N)nc1)N1CCN=C21 [COPANLISIB]	> 30 µM (inactive)	> 30 µM (inactive)	> 30 µM (inactive)	> 30 µM (inactive)	> 30 µM (inactive)	> 30 µM (inactive)	> 30 µM (inactive)	> 30 µM (inactive)	> 30 µM (inactive)	> 30 µM (inactive)	> 30 µM (inactive)
COCC(=O)NC/C=C/c1ccc2ncnc(Nc3ccc(Oc4ccc(C)nc4)c(C)c3)c2c1 [CP-724714]	> 30 µM (inactive)	> 30 µM (inactive)	1.26 µM (active)	> 30 µM (inactive)	> 30 µM (inactive)	> 30 µM (inactive)	> 30 µM (inactive)	> 30 µM (inactive)	> 30 µM (inactive)	> 30 µM (inactive)	> 30 µM (inactive)
C#Cc1cccc(Nc2ncnc3cc(OC)c(OCCCCCCC(=O)NO)cc23)c1 [CUDC-101]	> 30 µM (inactive)	> 30 µM (inactive)	> 30 µM (inactive)	> 30 µM (inactive)	> 30 µM (inactive)	> 30 µM (inactive)	> 30 µM (inactive)	> 30 µM (inactive)	> 30 µM (inactive)	> 30 µM (inactive)	> 30 µM (inactive)
CCS(=O)(=O)N1CCN(c2ccc(Nc3ncc(C(N)=O)c(NC4CC4)n3)cc2)CC1 [Cerdulatinib Hydrochloride]	> 30 µM (inactive)	> 30 µM (inactive)	0.656 µM (active)	> 30 µM (inactive)	> 30 µM (inactive)	> 30 µM (inactive)	> 30 µM (inactive)	0.032 µM (active)	> 30 µM (inactive)	0.033 µM (active)	> 30 µM (inactive)
